Experimental data as given in patent US20250073255A1, “USE OF FA-TYPE LIPID COMPOUNDS IN PREPARATION OF NUCLEIC ACID DELIVERY REAGENT AND RELATED PRODUCT” (BEIJING BAISHIKANG PHARMACEUTICAL TECHNOLOGY (BSJPHARMA) …, priority 2021, published 2025).

Tested on: C57BL/6 male mice
Test: In vivo delivery study of lipid nucleic acid mixture (oral gavage, RT-qPCR of PGY-sRNA-26 in tissues)
Design: species or system mouse
Settings: for oral delivery of single-stranded sRNA nucleic acids into mouse blood / oral delivery of single-stranded sRNA nucleic acids into mouse brain tissue / oral delivery of single-stranded sRNA nucleic acids into mouse femur / oral delivery of single-stranded sRNA nucleic acids into mouse heart tissue / oral delivery of single-stranded sRNA nucleic acids into mouse intestinal tissue / oral delivery of single-stranded sRNA nucleic acids into mouse kidney tissue / oral delivery of single-stranded sRNA nucleic acids into mouse liver tissue / oral delivery of single-stranded sRNA nucleic acids into mouse lung tissue / oral delivery of single-stranded sRNA nucleic acids into mouse pancreatic tissue / oral delivery of single-stranded sRNA nucleic acids into mouse spleen tissue / oral delivery of single-stranded sRNA nucleic acids into mouse stomach tissue: 100 μg lipid:10 nmol PGY-sRNA-26, sampled after 12 hours; for oral delivery of single-stranded sRNA nucleic acids into mouse heart tissue: vs free uptake group; for oral delivery of single-stranded sRNA nucleic acids into mouse intestinal tissue: intestine; for oral delivery of single-stranded sRNA nucleic acids into mouse pancreatic tissue: pancreas
Summary of the method: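 Stem-loop RT and SYBR qPCR, normalized to U6, measured PGY-sRNA-26 in blood and organs 12 h after gavage. Dosing was 10 nmol sRNA with 100 μg lipid, pre-mixed and heated 15 min at 90 °C, in 12-h-fasted mice, against saline and free-sRNA groups.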

| Compound | oral delivery of single-stranded sRNA nucleic acids into mouse blood | oral delivery of single-stranded sRNA nucleic acids into mouse brain tissue | oral delivery of single-stranded sRNA nucleic acids into mouse femur | oral delivery of single-stranded sRNA nucleic acids into mouse heart tissue | oral delivery of single-stranded sRNA nucleic acids into mouse intestinal tissue | oral delivery of single-stranded sRNA nucleic acids into mouse kidney tissue | oral delivery of single-stranded sRNA nucleic acids into mouse liver tissue | oral delivery of single-stranded sRNA nucleic acids into mouse lung tissue | oral delivery of single-stranded sRNA nucleic acids into mouse pancreatic tissue | oral delivery of single-stranded sRNA nucleic acids into mouse spleen tissue | oral delivery of single-stranded sRNA nucleic acids into mouse stomach tissue | overall delivery efficacy: delivering nucleic acids into each tissue and blood tested (100 μg lipid:10 nmol PGY-sRNA-26, all tissues and blood tested) |
| --- | --- | --- | --- | --- | --- | --- | --- | --- | --- | --- | --- | --- |
| CCCC/C=C\CCCCCCCC(=O)OCCCCCCCCCCCCCCCCCCCCCC [Lipid 817, docosyl (Z)-tetradec-9-enoate] | can effectively orally deliver | can effectively orally deliver | can effectively orally deliver | can effectively orally deliver | can effectively orally deliver | can effectively orally deliver | can effectively orally deliver | can effectively orally deliver | can effectively orally deliver | can effectively orally deliver | can effectively orally deliver |  |
| CCCCCC/C=C\CCCCCCCC(=O)OCCCCCCCCCCCCCCCCC [Lipid 818, heptadecyl (Z)-hexadec-9-enoate] | can effectively orally deliver | can effectively orally deliver | can effectively orally deliver | can effectively orally deliver | can effectively orally deliver | can effectively orally deliver | can effectively orally deliver | can effectively orally deliver | can effectively orally deliver | can effectively orally deliver | can effectively orally deliver |  |
| CCCCCC/C=C\CCCCCCCC(=O)OCCCCCCCCCCCCCCCCCCCCCCCC [Lipid 819, tetracosyl (Z)-hexadec-9-enoate] | can effectively orally deliver | can effectively orally deliver | can effectively orally deliver | can effectively orally deliver | can effectively orally deliver | can effectively orally deliver | can effectively orally deliver | can effectively orally deliver | can effectively orally deliver | can effectively orally deliver | can effectively orally deliver |  |
| CCCCCC/C=C\CCCCCCCC(=O)OCCCCCCCCCCCCCCCCCCCCC [Lipid 820, henicosyl (Z)-hexadec-9-enoate] | can effectively orally deliver | can effectively orally deliver | can effectively orally deliver | can effectively orally deliver | can effectively orally deliver | can effectively orally deliver | can effectively orally deliver | can effectively orally deliver | can effectively orally deliver | can effectively orally deliver | can effectively orally deliver |  |
| CCCCCC/C=C\CCCCCCCC(=O)OCCCCCCCCCCCCCCC [Lipid 821, pentadecyl (Z)-hexadec-9-enoate] | can effectively orally deliver | can effectively orally deliver | can effectively orally deliver | can effectively orally deliver | can effectively orally deliver | can effectively orally deliver | can effectively orally deliver | can effectively orally deliver | can effectively orally deliver | can effectively orally deliver | can effectively orally deliver |  |
| CCCCCC/C=C\CCCCCCCC(=O)OCCCCCCCCCCCCCCCCCCC [Lipid 822, nonadecyl (Z)-hexadec-9-enoate] | can effectively orally deliver | can effectively orally deliver | can effectively orally deliver | can effectively orally deliver | can effectively orally deliver | can effectively orally deliver | can effectively orally deliver | can effectively orally deliver | can effectively orally deliver | can effectively orally deliver | can effectively orally deliver | best delivery efficacy |
